# From patent publication US20120283217A1, “MODULATORS OF AMYLOID-BETA PRODUCTION” (SATORI PHARMACEUTICALS, INC., priority 2006, published 2012)
row,Structure (SMILES),melting point [°C]
1,C/C=C1/C(=O)C[C@H]2[C@@H]3CC[C@H]4C[C@@H](O[Si](C)(C)C(C)(C)C)CC[C@]4(C)[C@H]3CC[C@]12C (stereo in doubt),210 to 212
2,CC(=O)O[C@H]1CC[C@]23C[C@]24CC[C@]2(C)[C@@H]([C@H](C)CCC5(C(C)C)CO5)CC[C@@]2(C)[C@@H]4CC[C@H]3C1(C)C (stereo partly shown),129 to 131
3,C/C=C1/C(O)CC2C3CC=C4C[C@@H](O)CC[C@]4(C)C3CC[C@]12C (stereo partly shown),151 to 154
4,C/C=C1/C(=O)CC2C3CC=C4C[C@@H](O)CC[C@]4(C)C3CC[C@]12C (stereo partly shown),124 to 126
5,C[C@H](C(O)CO)C1C(=O)C[C@H]2[C@@H]3CC=C4C[C@@H](O[Si](C)(C)C(C)(C)C)CC[C@]4(C)[C@H]3CC[C@]12C (stereo partly shown),172 to 175
6,C=C[C@@H](C)[C@H]1C2(CC3C4CC=C5C[C@@H](O[Si](C)(C)C(C)(C)C)CC[C@]5(C)C4CC[C@@]31C)OCCO2 (stereo partly shown),112 to 114
7,COC(=O)C(=O)C[C@@H](C)[C@H]1CC[C@@]2(C)C3CCC4C(C)(C)[C@@H](OC(C)=O)CC[C@]4(C)C3CC[C@]12C (stereo partly shown),125 to 127
8,CC(=O)O[C@H]1CC[C@]2(C)C3CC[C@]4(C)[C@@H]([C@H](C)CC(=O)O)CC[C@@]4(C)C3CCC2C1(C)C (stereo partly shown),203 to 205
9,C=C[C@@H](C)[C@H]1C(=O)CC2C3CC=C4C[C@@H](O)CC[C@]4(C)C3CC[C@@]21C (stereo partly shown),125 to 127
10,C[C@H](C#N)[C@H]1C(=O)C[C@H]2[C@@H]3CC=C4C[C@@H](O)CC[C@]4(C)[C@H]3CC[C@]12C,124 to 126
11,CC(C)(C)[Si](C)(C)O[C@H]1CC[C@@]2(C)[C@@H](CC[C@@H]3[C@@H]2CC[C@]2(C)C(=O)CC[C@@H]32)C1,159 to 162
12,C/C=C1/[C@H](O)C[C@H]2[C@@H]3CC[C@H]4C[C@@H](O[Si](C)(C)C(C)(C)C)CC[C@]4(C)[C@H]3CC[C@]12C (stereo in doubt),145 to 147
13,C=C[C@@H](C)[C@H]1C(=O)C[C@H]2[C@@H]3CC[C@H]4C[C@@H](O[Si](C)(C)C(C)(C)C)CC[C@]4(C)[C@H]3CC[C@]12C,132 to 134
14,CC(=O)O[C@H]1CC[C@]23C[C@]24CC[C@]2(C)[C@@H]([C@H](C)CCC5OC5(C)C)CC[C@@]2(C)[C@@H]4CC[C@H]3C1(C)C (stereo partly shown),141 to 143
15,C=C[C@@H](C)[C@H]1CC[C@@]2(C)[C@@H]3CC[C@H]4C(C)(C)[C@@H](OC(C)=O)CC[C@@]45C[C@@]35CC[C@]12C,145 to 147
16,CC(=O)O[C@H]1CC[C@]23C[C@]24CC[C@]2(C)[C@@H]([C@H](C)CCC(O)C(C)C)CC[C@@]2(C)[C@@H]4CC[C@H]3C1(C)C (stereo partly shown),126 to 128
17,C/C=C1\C(=O)C[C@H]2[C@@H]3CC=C4C[C@@H](O[Si](C)(C)C(C)(C)C)CC[C@]4(C)[C@H]3CC[C@]12C,138 to 142
18,CC(=O)O[C@H]1CC[C@]23C[C@]24CC[C@]2(C)[C@@H]([C@H](C)CCC(=O)C(F)(F)F)CC[C@@]2(C)[C@@H]4CC[C@H]3C1(C)C,133 to 135
19,C/C=C1/CCC2C3CC=C4C[C@@H](O)CC[C@]4(C)C3CC[C@]12C (stereo partly shown),168 to 170
20,C=C[C@@H](C)[C@H]1[C@H](O)C[C@H]2[C@@H]3CC=C4C[C@@H](O[Si](C)(C)C(C)(C)C)CC[C@]4(C)[C@H]3CC[C@]12C,156 to 158
21,C[C@H](C1CO1)[C@H]1C(=O)C[C@H]2[C@@H]3CC=C4C[C@@H](O[Si](C)(C)C(C)(C)C)CC[C@]4(C)[C@H]3CC[C@]12C (stereo partly shown),103 to 104
22,C/C=C1\C(=O)C[C@H]2[C@@H]3CC=C4C[C@@H](O)CC[C@]4(C)[C@H]3CC[C@]12C,112 to 113
23,C/C=C1/CC[C@H]2[C@@H]3CC[C@H]4C[C@@H](O[Si](C)(C)C(C)(C)C)CC[C@]4(C)[C@H]3CC[C@]12C (stereo in doubt),136 to 137
24,"CC(=O)O[C@H]1CC[C@]23C[C@]24CC[C@]2(C)[C@@H]([C@H](C)CC(=O)C(F)(F)F)CC[C@@]2(C)C4CCC3C1(C)C (stereo in doubt) [Compound I-18, 3β-Acetoxy-9,19-Cyclo-4,4,14-trimethyl-23-oxo-24-trifluorocholane]",170 to 173
25,"CC(=O)O[C@H]1CC[C@]23C[C@]24CC[C@]2(C)[C@@H]([C@H](C)CC(=O)O)CC[C@@]2(C)C4CCC3C1(C)C (stereo in doubt) [Compound I-17, 3β-Acetoxy-9,19-Cyclo-4,4,14-trimethyl-24-norchol-23-oic acid]",222 to 224

# The next lines start with the values.
row,melting point [°C],Structure (SMILES)
1,128 to 130,C/C=C1/CC[C@H]2[C@@H]3CC=C4C[C@@H](O[Si](C)(C)C(C)(C)C)CC[C@]4(C)[C@H]3CC[C@]12C [Compound I-6]
2,290 to 292,CC(C#N)[C@H]1[C@@H](O)CC2C3CC=C4C[C@@H](O[Si](C)(C)C(C)(C)C)CC[C@]4(C)C3CC[C@@]21C (stereo in doubt) [Compound I-10]
3,120 to 122,COC(=O)C(=O)C[C@@H](C)[C@H]1CC[C@@]2(C)C3CCC4C(C)(C)[C@@H](OC(C)=O)CC[C@@]45C[C@@]35CC[C@]12C (stereo in doubt) [Compound I-20]
4,201 to 212,"CC(=O)O[C@H]1CC[C@]23C[C@]24CC[C@]2(C)[C@@H]([C@H](C)CCC(=O)O)CC[C@@]2(C)C4CCC3C1(C)C (stereo in doubt) [Compound I-4, 3-β-O-acetyl-25,26,27-Trinorcycloartan-24-oic acid]"
5,150 to 152,CC(C)(C)[Si](C)(C)O[C@H]1CC[C@@]2(C)C(=CC[C@@H]3[C@@H]2CC[C@]2(C)C(=O)CC[C@@H]32)C1 [Compound I-13]
6,161 to 163,C/C=C1/C(=O)C[C@H]2[C@@H]3CC=C4C[C@@H](O[Si](C)(C)C(C)(C)C)CC[C@]4(C)[C@H]3CC[C@]12C [Compound I-8]
7,119 to 121,"CC(=O)O[C@H]1CC[C@]23C[C@]24CC[C@]2(C)[C@@H]([C@H](C)CCC(=O)C(C)C)CC[C@@]2(C)C4CCC3C1(C)C (stereo partly drawn) [Compound I-3, 24-Oxocycloartanol-3-β-O-acetate]"
8,137 to 139,C/C=C1/C(O)CC2C3CC=C4C[C@@H](O[Si](C)(C)C(C)(C)C)CC[C@]4(C)C3CC[C@]12C (stereo in doubt) [Compound I-7]
9,203 to 205,CC(=O)O[C@H]1CC[C@]23C[C@]24CC[C@]2(C)[C@@H]([C@H](C)CC(=O)C(C#N)=P(c5ccccc5)(c5ccccc5)c5ccccc5)CC[C@@]2(C)C4CCC3C1(C)C (stereo in doubt) [Compound I-19]
